SMILES | melting point
O=C1c2c(O)ccc(O)c2C(=O)c2c(F)ccc(F)c21 | 301 to 304 °C
NC(=O)/C=C1/c2cc(F)ccc2CC1O[N+](=O)[O-] (stereo unspecified) | 162 to 163 °C
N#Cc1nn(-c2c(Cl)cc(C(F)(F)F)cc2Cl)cc1C1CC1(Cl)Cl (stereo unspecified) | 123 to 126 °C
COCOc1cc(OC)ccc1C(=O)O | 96 to 97 °C
CC(C)c1nc(CO)n(CC2=CCC(=O)N=C2)c1Sc1cc(Cl)cc(Cl)c1 | 220 °C
Clc1nc(-c2ccncc2)cs1 | 124 to 125 °C
COCCC(=O)C1(N)C=CC(N(C)C(C)=O)=C(C#N)C1 (stereo unspecified) | 143 to 145 °C
CC(C)N(C(=O)CC(C#N)(CCN1CCCCC1)c1ccccc1Cl)C(C)C (stereo unspecified) | 83 to 85 °C
Cc1ccc(-c2nc(COc3ccc(CCCCn4ccnc4)cc3)co2)s1 | 82 to 83 °C
Cc1cccc(Nc2cc(Nc3ccc(OCCCO)cc3)ncn2)c1 | 196 to 200 °C
CCC(C)Cc1ccc(C(=O)O)cc1C#N (stereo unspecified) | 91.2 to 92.1 °C
O=C(O)C(=O)CC(=O)c1cccn1Cc1cccc(F)c1 | 147 to 149 °C
CNC(=O)[C@H]1O[C@@H](n2cnc3c(NCc4cc(Cl)ccc4OCc4ccccc4)ncnc32)[C@H](O)[C@@H]1N | 114 to 115 °C
O=C(O)CCCCCN1C(=O)c2ccc([N+](=O)[O-])cc2C1=O | 140 °C
N#Cc1cc(C(=O)NNC(=O)c2occc2-c2cccc(OCc3ccccc3)c2)ccc1O | 190 to 195 °C
Cc1c(Cl)cccc1S(=O)(=O)C[N+](=O)[O-] | 78 to 79 °C
CCOC(=O)Nc1c(Cl)cccc1[Si](C)(C)C | 109 to 110 °C
COc1cc(C2COc3c(C)c(C)c(NC(=O)CC(C)(C)C)c(C)c32)ccc1C(C)=O (stereo unspecified) | 131 to 133 °C
Cc1oc(-c2ccccc2)nc1CCc1noc(CCl)n1 | 71 to 72 °C
Clc1cc(CCc2ccccn2)c2oc(-c3cnc[nH]3)nc2c1 | 202 to 209 °C

SMILES | melting point
COCCCC#Cc1ccccc1S(N)(=O)=O | 59 to 61 °C
COc1ccc(N2CCN(c3ccc(NC(N)=S)cc3)CC2)cc1 | 265 °C
CCP(=O)(CC)Cc1ccccc1O | 127 °C
OC1CC=C(c2ccc(C(F)(F)F)cc2)CC1 (stereo unspecified) | 104 to 106 °C
CC1(C)CC(=O)C2=C(C1)NC1=C(C(=O)CC(C)(C)C1)C2c1ccc(Br)c([N+](=O)[O-])c1 | > 300 °C
CC(=O)NC[C@@H]1C[C@H]1c1cccn2nc(C)cc12 (relative stereo) | 100 to 101 °C
Cc1cc(C)c(CC(=O)O)c(C#N)c1 | 155 to 157 °C
O=C(COCc1ccccc1)NC(C(=O)O)c1ccccc1 (stereo unspecified) | 127 to 130 °C
Cc1nnc(-c2ccnc(Nc3ccc(S(C)(=O)=O)cc3)c2)o1 | 244 to 245 °C
Nc1nc(N)c(-c2ccc(Cl)cc2Cl)c(C=NO)n1 | 260 to 265 °C
COC(=O)Nc1cc(OC2CCCC2)c(Cl)cc1F | 120 to 123 °C
COC/C=C\c1cccc(C2(c3ccc(OC(F)F)cc3)N=C(N)N(C)C2=O)c1 (stereo unspecified) | 41 to 44 °C
CC[C@H]1CN(c2ccc3c(=O)c(C(=O)O)cn([C@@H]4C[C@@H]4F)c3c2C)C[C@H]1N | 232 to 234 °C
O=C1CCC(c2cccc(C(F)(F)F)c2)=NN1 | 211 to 214 °C
O=C1NC(=O)C(Cc2ccc(Oc3ccc(Oc4ccc(CC5OC(=O)NC5=O)cc4)cc3)cc2)O1 (stereo unspecified) | 93 to 96 °C
O=CNc1nc(-c2cccnc2)c(Cl)s1 | 229 °C
CCCn1cc(Cc2ccc(C(=O)OC)cc2OC)c2cc(CCC(=O)O)ccc21 | 109 to 111 °C
CCOC(=O)Cc1cc(CC)c(C(=O)c2ccc(Cl)cc2)n1C | 73 to 75 °C
Nc1nc(NCCN2CCCCC2)nc(-c2cc(Cl)ccc2Cl)n1 | 179 to 181 °C
CC(Cl)=Cc1ccc([N+](=O)[O-])o1 | 55 to 65 °C

SMILES | melting point
CC1(C)COP(=O)(Cc2ccc(N)cc2)OC1 | 152 to 153 °C
Cc1cc(N(C)Cc2oc(-c3ccc(C(F)(F)F)cc3)nc2C)ccc1OCC(=O)O | 156 to 157 °C
OC(CNc1ccc(Cl)c(Cl)c1)Cn1ccnc1 (stereo unspecified) | 98 to 100 °C
COc1c(NC(=O)c2ccc(C)c(-n3cc(C(=O)Cl)nn3)c2)cc(C(C)(C)C)cc1NS(C)(=O)=O | 205 to 207 °C
CCCCCCCCCCCCCCCCCC(O)C[N+](=O)[O-] (stereo unspecified) | 55 to 56 °C
C=CCOc1ccc(C(=O)C=Cc2cccc(OC)c2OC)cc1 | 98 to 99 °C
NC(=O)c1ccc(N2CCN(Cc3cn4cc(Cl)ccc4n3)CC2)cc1 | 240 to 241 °C
CCOC(=O)NC1=NN(c2cccc(Cl)c2)C(=O)C1C (stereo unspecified) | 162 °C
CCCOc1c(OC)cc(C(=O)CCC(=O)c2cc(OC)c(OC)c(OC)c2)cc1SC | 113 to 114 °C
N#Cc1ccc(-c2cn(-c3ccc(C#N)cc3)c(C(O)c3ccccc3)n2)cc1 (stereo unspecified) | 217 to 222 °C
Cc1ccc(S(=O)(=O)NCC(CC(C)C)NS(=O)(=O)c2ccc(C)cc2)cc1 (stereo unspecified) | 138 to 140 °C
CN(C)C=Cc1ncc([N+](=O)[O-])n1CCO | 155 to 157 °C
CCCCCCCCCCCCCCCCOCC(CO)CF (stereo unspecified) | 34 °C
C1COCCN2CCOCCOCCN(CCO1)CCSCCSCC2 | 78 to 80 °C
COc1cccc(OC)c1-c1ccc(C[C@H](NC(=O)c2c(Cl)cc(-c3ccc[nH]3)cc2Cl)C(=O)O)cc1 | 250 °C
C=Cc1c(C)c2cc3nc(c4c5[nH]c(cc6nc(cc1[nH]2)C(C)=C6CC)c(C)c5C(=O)C4)C(CCC(=O)OC)C3C (stereo unspecified) | 217 to 219 °C
Nc1cc(OCC(O)CO)ccc1[N+](=O)[O-] (stereo unspecified) | 139 °C
CCOC(=O)C=Cc1cnc(C(C)(C)C)nc1 | 43 to 45 °C
CCOC(=O)C1=CC2(CCC1S(=O)(=O)Nc1ccc(F)cc1Cl)CCC1(COCOO1)CO2 (stereo unspecified) | 156 to 157 °C
CC(C)NC(=O)N1CCc2[nH]cnc2C1c1ccncc1 (stereo unspecified) | 212 °C

Other lines, results leading:

melting point | SMILES
108 °C | O=[N+]([O-])c1ccc(Cl)cc1NC1Cc2ccccc2C1
134 to 137 °C | Cc1ccc(-n2cccc2-c2ccc(S(C)(=O)=O)cc2)cc1C
65 °C | COC(=O)c1cccc(SCc2c(O[C@H](Cn3ccnc3)c3ccccc3)ccc3c2CCCC3=O)c1
254 to 259 °C | CCCOc1ccccc1C1=NC(=O)C2=NC=NC2=N1
137 to 138 °C | CC(C)n1nc(OCc2ccc3ccccc3n2)cc1CO
195 °C | O=C1N(Cc2ccco2)Cc2cnc(Nc3ccccc3)nc2N1c1cccc(CCO)c1
74 to 75 °C | CCNC(=O)OC1=C(c2ccccc2)Oc2ccccc2-n2cccc21
209 to 210 °C | Cc1cccc2cc(N3CCN(CCO)CC3)[nH]c(=O)c12
231 to 232 °C | CC(=O)c1sccc1CN1C(=O)C(NC(=O)Nc2cccc(C)c2)N=C(C2CCCCC2)c2ccccc21 (racemic)
172 to 173 °C | CS(=O)(=O)n1ccc2c1CC(c1ccccc1)CC2=O (stereo unspecified)
130 °C | O=C(Nc1ccc(F)cc1)Oc1ccc2c(c1)N(Cc1ccccc1)CCC2
212 to 214 °C | Cc1ccccc1N1CCN(CCn2c(=O)[nH]c3ccsc3c2=O)CC1
148 to 149 °C | CCOC(=O)c1cc2c(C)ccc(N(CC)S(=O)(=O)c3cccs3)c2[nH]1
150 to 160 °C | COc1ccc(-c2nc3cc(Cl)c(Cl)cc3n2C(=O)OCc2ccccc2)cc1N
146 to 147 °C | COc1cc2ncnc(N3CCc4cccc(C)c43)c2cc1OC
156 to 159 °C | CCOC(=O)Cc1ccc(N(C)c2nc(=O)c3cccnc3s2)cc1
256 to 257 °C | c1ccc2c(c1)[nH]c1cnc(-c3nc(C4CC4)no3)cc12
127 to 130 °C | Cc1ccccc1Nc1nc(NCc2ccccc2)nc2ccccc12
249 to 251 °C | Cc1ccccc1-c1c(C2CCN(C)CC2)[nH]c(=O)c2ccccc12
213 to 214 °C | NS(=O)(=O)c1cc(CO)cc(NCc2ccccc2)c1S(=O)c1ccccc1 (stereo unspecified)
271 °C | O=C1c2cccc3cc4ccccc4c(c23)C(=O)N1CCNCCN1C(=O)c2cccc3cc4ccccc4c(c23)C1=O

melting point | SMILES
122 to 123 °C | COc1ccc(F)cc1C(C)(C)CC(O)(Cn1ncc(=O)c2ccccc21)C(F)(F)F (stereo unspecified)
237 to 240 °C | COc1cc(O)ccc1-c1nc(C)c(-c2cccnc2)[nH]1
146 to 148 °C | COc1c(Cc2ccccc2)cc(C(=O)O)c2ccccc12
136 to 137 °C | CCCn1c(=O)c2nc(CC(C)c3ccccc3)[nH]c2n(CCC)c1=O (stereo unspecified)
90 to 95 °C | CC(=O)OC1CCc2cc3ccccc3n2C1 (stereo unspecified)
242 to 244 °C | O=C1CCC(N2Cc3c(OCc4cc5cc(N6CCCCC6)ccc5o4)cccc3C2=O)C(=O)N1 (stereo unspecified)
120 to 122 °C | O=C(NCCCn1cnc(-c2ccccc2)c1)c1ccco1
206 to 210 °C | Cc1c(N2CC[C@@H](O)[C@H](C)C2)c(F)cc2c(=O)c(C(=O)O)cn(C3CC3)c12 (relative stereo)
189 to 191 °C | O=C(c1ccc(Cl)cc1)N1CCCC2=C1CCc1cc(Cl)ccc12
290 to 292 °C | NC1CCN(c2c(F)cc3c(=O)c(C(=O)O)cn(C4CC4)c3c2F)C1 (stereo unspecified)
210 to 212 °C | CCCCc1oc2ccccc2c1C(=O)Nc1ccc(-c2ccc(OCc3nnn[nH]3)cc2)cc1
192 to 194 °C | O=C(O)CS(=O)(=O)c1cccc(-c2nc(=O)c3ccccc3s2)n1
204 °C | CC(=O)N[C@H]1CC[C@H](CCN2CCC(c3ccc(F)c4occc34)CC2)CC1
> 200 °C | Cc1nc(N2CCc3ccccc3CC2)c(C#N)c(=O)[nH]1
> 300 °C | O=C(O)c1ccc(N2C(=O)c3cccc([N+](=O)[O-])c3C2=O)cc1
211 to 213 °C | CC(=O)Nc1ccc2c(c1)cc(C(=O)c1ccc(C)cc1)n2C
54 to 55 °C | CCOC(=O)C(C)(C)c1ccc(OCc2ccccc2)cc1
191 to 192 °C | CN1CCN=C(c2ccc([N+](=O)[O-])cc2)C1=O
175 to 177 °C | CN1CCN(c2ccc(S(=O)(=O)Oc3cccc(F)c3)cc2)C1=O
102 °C | CC(C)=NOc1cc(OCc2ccccc2)ccc1C#N
